Test results: patent publication US10729130B2, “Nematicidal compositions and methods of using them” (Eden Research plc, priority 2004, dated 2020)
Where “and” joins values, the source holds several entries; their conditions need not be identical. Equal entries are not always repeated. Values belong to the compound of their own block, whether it stands above or below them.

Key:
root-knot juveniles = test: Effect of citral alone and citral and thymol on root-knot nematode juveniles; type: in vivo; conditions: average of 2 replicates
Method: This was labelled 2500 ppm and was diluted to provide test solutions at 500, 250, 125 and 62.5 ppm.
This was marked 2500 ppm and diluted to provide test solutions at 500, 250, 125 and 62.5 ppm.
Control—Water was used as the control.
Nematode juveniles were collected in water and 0.1 to 0.15 ml added to each well of a plastic assay plate. 1.0 ml of the test solutions was added to each well. Observations were made microscopically after 24 and 48 hours as described in Example 4. […] Living nematodes move in an undulating, wave-like motion.
The results of two experiments are provided below in Tables 7 and 8.

root-knot nematodes [1] = test: Effect of pH on the nematicidal activity of citral (fresh and one-day old solutions); type: in vivo, root-knot nematode
Method: Test solutions of these three concentrations were prepared at different pHs by adjusting the pH with HCl or NaOH to pH 4, 7 and 10.
One batch of test solutions was used immediately and another was left for 24 hours before use. The method of administration to the nematodes and counting the kill rate is the same as for previous protocols.
The results are shown below in Tables 11 and 12.

root-knot nematodes [2] = test: Nematicidal activity of citral on root-knot nematodes (selectivity experiment); conditions: 250 ppm
Saprophagous nematodes = test: Nematicidal activity of citral on Saprophagous nematodes (selectivity experiment); conditions: 250 ppm
[3] = Loading of terpenes (L-carvone) into SAF Mannan in minimal water (free terpene, flow); type: physicochemical; parameters: key to Free Terpene: +: “free terpene” refers to the visible presence of terpene in the centrifuged reaction mixture; −: The absence of free terpene indicates complete absorption of the terpene by the particles; key to Flow: Sl = slight; conditions: emulsion 4.64 g; for Flow: flow in inverted tubes over 15 minutes
Method: The following protocol was carried out to evaluate the possibility that terpene loading and encapsulation into YP could be carried out at a very high Yeast Particles (YP) solids level to allow for direct extrusion of the loaded formulation into a fluidised bed drier. The minimal amount of water to completely hydrate the SAF Mannan™ particles was determined to be 3.53 g water per g solids. This defines the hydrodynamic volume (HV) or water absorptive capacity of the particles. At this level of water the hydrated particles have a consistency of a stiff dough which is thixotropic, i.e. shear thinning like mayonnaise. Addition of water up to 40% above the HV results in a thick flowable paste. The standard reaction that has been used in the above examples was carried out at 3×HV water.
. Controls were the standard loading system which uses 3×HV water, particles only and terpene only reactions. Following overnight incubation samples of the mixtures were evaluated microscopically for free terpene and evidence of terpene uptake into the particles and for material flow characteristics by assessing flow in inverted tubes over 15 minutes. In addition, the presence of free oil was assessed by hydrating the reaction mixture with 5×HV, vortexing to obtain a complete dispersion of particles and centrifugation to sediment the particle encapsulated terpene. FIGS. 7 to 12 show the loading results of the following tubes: • FIG. 7—Tube 3 • FIG. 8—Tube 5 • FIG. 9—Tube 6 • FIG. 10—Tube 8 • FIG. 11—Tube 10 • FIG. 12—Tube 11

Compound: CC(C)=CCCC(C)=CC=O [Citral, citral]
percentage of nematodes dead (root-knot juveniles; Table 7 experiment, 125 ppm, 24 h): 100%
percentage of nematodes dead (root-knot juveniles; Table 7 experiment, 125 ppm, 48 h): 24%
percentage of nematodes dead (root-knot juveniles; Table 7 experiment, 250 ppm, 24 h): 100%
percentage of nematodes dead (root-knot juveniles; Table 7 experiment, 250 ppm, 48 h): 91%
percentage of nematodes dead (root-knot juveniles; Table 7 experiment, 500 ppm, 24 h): 98%
percentage of nematodes dead (root-knot juveniles; Table 7 experiment, 500 ppm, 48 h): 97%
percentage of nematodes dead (root-knot juveniles; Table 8 experiment, 62.5 ppm, 24 h): 98%
percentage of nematodes dead (root-knot juveniles; Table 8 experiment, 125 ppm, 24 h): 94%
percentage of nematodes dead (root-knot juveniles; Table 8 experiment, 250 ppm, 24 h): 94%
% nematodes dead (root-knot nematodes [1]; fresh citral, 62.5 ppm, pH 4, 24 h): 48%
% nematodes dead (root-knot nematodes [1]; fresh citral, 62.5 ppm, pH 4, 48 h): 50%
% nematodes dead (root-knot nematodes [1]; fresh citral, 62.5 ppm, pH 7, 24 h): 39%
% nematodes dead (root-knot nematodes [1]; fresh citral, 62.5 ppm, pH 7, 48 h): 44%
% nematodes dead (root-knot nematodes [1]; fresh citral, 62.5 ppm, pH 10, 24 h): 32%
% nematodes dead (root-knot nematodes [1]; fresh citral, 62.5 ppm, pH 10, 48 h): 45%
% nematodes dead (root-knot nematodes [1]; fresh citral, 125 ppm, pH 4, 24 h): 31%
% nematodes dead (root-knot nematodes [1]; fresh citral, 125 ppm, pH 4, 48 h): 50%
% nematodes dead (root-knot nematodes [1]; fresh citral, 125 ppm, pH 7, 24 h): 44%
% nematodes dead (root-knot nematodes [1]; fresh citral, 125 ppm, pH 7, 48 h): 47%
% nematodes dead (root-knot nematodes [1]; fresh citral, 125 ppm, pH 10, 24 h): 39%
% nematodes dead (root-knot nematodes [1]; fresh citral, 125 ppm, pH 10, 48 h): 39%
% nematodes dead (root-knot nematodes [1]; fresh citral, 250 ppm, pH 4, 24 h): 75%
% nematodes dead (root-knot nematodes [1]; fresh citral, 250 ppm, pH 4, 48 h): 73%
% nematodes dead (root-knot nematodes [1]; fresh citral, 250 ppm, pH 7, 24 h): 73%
% nematodes dead (root-knot nematodes [1]; fresh citral, 250 ppm, pH 7, 48 h): 72%
% nematodes dead (root-knot nematodes [1]; fresh citral, 250 ppm, pH 10, 24 h): 83%
% nematodes dead (root-knot nematodes [1]; fresh citral, 250 ppm, pH 10, 48 h): 87%
% nematodes dead (root-knot nematodes [1]; one-day old citral, 62.5 ppm, pH 4, 24 h): 40%
% nematodes dead (root-knot nematodes [1]; one-day old citral, 62.5 ppm, pH 4, 48 h): 27%
% nematodes dead (root-knot nematodes [1]; one-day old citral, 62.5 ppm, pH 7, 24 h): 30%
% nematodes dead (root-knot nematodes [1]; one-day old citral, 62.5 ppm, pH 7, 48 h): 27%
% nematodes dead (root-knot nematodes [1]; one-day old citral, 62.5 ppm, pH 10, 24 h): 16%
% nematodes dead (root-knot nematodes [1]; one-day old citral, 62.5 ppm, pH 10, 48 h): 21%
% nematodes dead (root-knot nematodes [1]; one-day old citral, 125 ppm, pH 4, 24 h): 27%
% nematodes dead (root-knot nematodes [1]; one-day old citral, 125 ppm, pH 4, 48 h): 31%
% nematodes dead (root-knot nematodes [1]; one-day old citral, 125 ppm, pH 7, 24 h): 25%
% nematodes dead (root-knot nematodes [1]; one-day old citral, 125 ppm, pH 7, 48 h): 33%
% nematodes dead (root-knot nematodes [1]; one-day old citral, 125 ppm, pH 10, 24 h): 25%
% nematodes dead (root-knot nematodes [1]; one-day old citral, 125 ppm, pH 10, 48 h): 32%
% nematodes dead (root-knot nematodes [1]; one-day old citral, 250 ppm, pH 4, 24 h): 90%
% nematodes dead (root-knot nematodes [1]; one-day old citral, 250 ppm, pH 4, 48 h): 90%
% nematodes dead (root-knot nematodes [1]; one-day old citral, 250 ppm, pH 7, 24 h): 40%
% nematodes dead (root-knot nematodes [1]; one-day old citral, 250 ppm, pH 7, 48 h): 33%
% nematodes dead (root-knot nematodes [1]; one-day old citral, 250 ppm, pH 10, 24 h): 47%
% nematodes dead (root-knot nematodes [1]; one-day old citral, 250 ppm, pH 10, 48 h): 52%
% dead (root-knot nematodes [2]; 24 h): 87% and 88%
% dead (root-knot nematodes [2]; 48 h): 100%
% dead (Saprophagous nematodes; 24 h): 43% and 50%
% dead (Saprophagous nematodes; 48 h): 50% and 52%

Free Terpene ([3]; Tube 1: terpene only control, no SAF, water 4.5 g): +
Free Terpene ([3]; Tube 3: SAF 1 g, water 4.5 g (standard loading, 3×HV)): −
Free Terpene ([3]; Tube 4: SAF 1 g, water —): −
Free Terpene ([3]; Tube 5: SAF 1 g, water 0.17 g): −
Free Terpene ([3]; Tube 6: SAF 1 g, water 0.35 g): −
Free Terpene ([3]; Tube 7: SAF 1 g, water 0.52 g): −
Free Terpene ([3]; Tube 8: SAF 1 g, water 0.7 g): −
Free Terpene ([3]; Tube 9: SAF 1 g, water 0.87 g): −
Free Terpene ([3]; Tube 10: SAF 1 g, water 1.05 g): −
Free Terpene ([3]; Tube 11: SAF 1 g, water 1.39 g): −
Flow ([3]; Tube 7: SAF 1 g, water 0.52 g): Sl
Flow ([3]; Tube 8: SAF 1 g, water 0.7 g): Mod
Flow ([3]; Tube 9: SAF 1 g, water 0.87 g): High
Flow ([3]; Tube 10: SAF 1 g, water 1.05 g): High
Flow ([3]; Tube 11: SAF 1 g, water 1.39 g): High
Compound: L-carvone
